Columns and labels:
[1] = tested on: DIGSA; assay: Pre-emergence herbicidal action against DIGSA; assay type: in vivo, Digitaria sanguinalis
Text: (§1) Seeds of monocotyledonous and dicotyledonous weed plants and crop plants are laid out in sandy loam soil in wood-fiber pots and covered with soil. The compounds of the invention, formulated in the form of wettable powders (WP) or as emulsion concentrates (EC), are then applied to the surface of the covering soil in the form of an aqueous suspension or emulsion at a water application rate equivalent to 600 to 800 l/ha, with addition of 0.2% wetting agent. After the treatment, the pots are placed in a greenhouse and kept under good growth conditions for the trial plants. The damage to the test plants is scored visually after a test period of 3 weeks by comparison with untreated controls (herbicidal activity in percent (%): 100% activity=the plants have died, 0% activity=like control plants). […] The tables below illustrate, in an illustrative manner, the post-emergence herbicidal action of the compounds of the invention, the herbicidal activity being stated in percent.

[2] = tested on: ECHCG; assay: Post-emergence herbicidal action against ECHCG; assay type: in vivo, Echinochloa crus-galli
Description: (§2) Seeds of monocotyledonous and dicotyledonous weed and crop plants are laid out in sandy loam soil in wood-fiber pots, covered with soil and cultivated in a greenhouse under good growth conditions. 2 to 3 weeks after sowing, the test plants are treated at the one-leaf stage. The compounds of the invention, formulated in the form of wettable powders (WP) or as emulsion concentrates (EC), are then sprayed onto the green parts of the plants in the form of an aqueous suspension or emulsion at a water application rate equivalent to 600 to 800 l/ha, with addition of 0.2% wetting agent. After the test plants have been left to stand in the greenhouse under optimal growth conditions for about 3 weeks, the action of the preparations is assessed visually in comparison to untreated controls (herbicidal action in percent (%): 100% activity=the plants have died, 0% activity=like control plants). […] The tables below illustrate, in an illustrative manner, the post-emergence herbicidal action of the compounds of the invention, the herbicidal activity being stated in percent.

[3] = tested on: AMARE; assay: Pre-emergence herbicidal action against AMARE; assay type: in vivo, Amaranthus retroflexus
Text: as §1

[4] = tested on: MATIN; assay: Pre-emergence herbicidal action against MATIN; assay type: in vivo, Matricaria inodora
Text: as §1

[5] = tested on: AMARE; assay: Post-emergence herbicidal action against AMARE; assay type: in vivo, Amaranthus retroflexus; conditions: 20 g/ha, visual assessment about 3 weeks after treatment, 100% = plants have died, 0% = like control plants
Description: as §2

[6] = tested on: VIOTR; assay: Post-emergence herbicidal action against VIOTR; assay type: in vivo, Viola tricolor
Description: as §2

[7] = tested on: ABUTH; assay: Pre-emergence herbicidal action against ABUTH; assay type: in vivo, Abutilon theophrasti; conditions: for Pre-emergence action against ABUTH (herbicidal activity in percent): dosage 20 g/ha, scored visually after 3 weeks vs untreated controls, 100% = plants have died, 0% = like control plants
Text: as §1

[8] = tested on: PHBPU; assay: Post-emergence herbicidal action against PHBPU; assay type: in vivo, Pharbitis purpurea; conditions: dosage 20 g/ha
Description: as §2

[9] = tested on: ECHCG; assay: Pre-emergence herbicidal action against ECHCG; assay type: in vivo, Echinochloa crus-galli; conditions: 80 g/ha
Text: as §1

[10] = tested on: VIOTR; assay: Pre-emergence herbicidal action against VIOTR; assay type: in vivo, Viola tricolor
Text: as §1

[11] = tested on: ABUTH; assay: Post-emergence herbicidal action against ABUTH; assay type: in vivo, Abutilon theophrasti; conditions: dosage 20 g/ha, visual assessment about 3 weeks after treatment vs untreated controls
Description: as §2

[12] = tested on: SETVI; assay: Pre-emergence herbicidal action against SETVI; assay type: in vivo, Setaria viridis
Text: as §1

[13] = tested on: ALOMY; assay: Pre-emergence herbicidal action against ALOMY; assay type: in vivo, Alopecurus myosuroides; conditions: 80 g/ha, pre-emergence, scored visually after 3 weeks vs untreated controls (100% = plants have died, 0% = like control plants)
Text: as §1

[14] = tested on: SETVI; assay: Post-emergence herbicidal action against SETVI; assay type: in vivo, Setaria viridis; conditions: dosage 20 g/ha
Description: as §2

[15] = 80 g/ha, scored visually after 3 weeks vs untreated controls (100% = plants have died, 0% = like control plants)
[16] = 20 g/ha, scored visually after 3 weeks vs untreated controls, 100% = plants have died, 0% = like control plants

Row | SMILES | Pre-emergence action against DIGSA in % ([1]; dosage 80 g/ha) [%] | Post-emergence action against ECHCG in % ([2]; dosage 20 g/ha) [%] | Pre-emergence action against AMARE in % [3, 15] [%] | Pre-emergence action against MATIN in % ([4]; dosage 80 g/ha) [%] | Post-emergence action at 20 g/ha against AMARE in % [5] [%] | Pre-emergence action against ABUTH (herbicidal activity) [7, 15] [%] | Pre-emergence action against AMARE in % [3, 16] [%] | Pre-emergence action against ECHCG in % [9] [%] | other results
1 | Cc1nnc(NC(=O)c2ccc(C(F)F)c(C(=O)NC3CC3)c2C2CC2)o1 [Example 6-233] | 90 | 80 | 80 | – | – | – | – | – | –
2 | CNC(=O)c1c(C(F)F)ccc(C(=O)Nc2nnc(C)o2)c1C1CC1 [Example 6-231] | 90 | – | 100 | 80 | 90 | – | – | – | Pre-emergence action against DIGSA in % ([1]; dosage 20 g/ha): 80%; Post-emergence action against VIOTR in % ([6]; 5 g/ha): 90%; Post-emergence action against VIOTR in % ([6]; 20 g/ha): 90%
3 | Cc1nnc(NC(=O)c2ccc(C(F)(F)F)c(C(=O)NCC(F)F)c2C2CC2)o1 [Example 6-230] | 80 | – | 100 | 80 | 90 | 90 | 100 | 80 | Post-emergence action against PHBPU in % [8]: 80%
4 | CNC(=O)c1c(C(F)F)ccc(C(=O)Nc2nnc(C)o2)c1OC [Example 6-49] | – | – | 100 | – | – | – | 80 | – | Pre-emergence action against VIOTR in % ([10]; dosage 20 g/ha): 80%; Pre-emergence action against VIOTR in % ([10]; dosage 80 g/ha): 80%; Post-emergence action against ABUTH in % [11]: 80%; Post-emergence action against VIOTR in % ([6]; 20 g/ha): 80%
5 | Cc1nnc(NC(=O)c2ccc(C(F)F)c(C(=O)NCC(=O)N(C)C)c2Cl)o1 [Example 6-265] | – | – | 80 | – | – | – | – | – | –
6 | Cc1nnc(NC(=O)c2ccc(Br)c(C(=O)NC(C)C3CC3)c2Cl)o1 (stereo not shown) [Example 6-257] | 100 | 90 | 100 | 90 | – | 100 | – | 80 | Pre-emergence action against MATIN in % ([4]; dosage 20 g/ha): 80%; Post-emergence action against ECHCG in % ([2]; dosage 5 g/ha): 80%
7 | Cn1nnnc1NC(=O)c1ccc(C(F)(F)F)c(C(=O)NCC#N)c1Cl [Example 1-140] | – | – | 100 | – | 80 | – | – | – | Pre-emergence action against VIOTR in % ([10]; dosage 80 g/ha): 90%; Post-emergence action against VIOTR in % ([6]; 20 g/ha): 80%
8 | Cn1nnnc1NC(=O)c1ccc(C(F)F)c(C(=O)NCc2cccs2)c1Cl [Example 1-162] | – | 80 | 100 | 90 | 90 | – | 90 | 100 | Pre-emergence action against SETVI in % ([12]; dosage 80 g/ha): 80%; Post-emergence action against PHBPU in % [8]: 80%; Pre-emergence action against ALOMY (herbicidal activity) [13]: 90%
9 | CCn1nnnc1NC(=O)c1ccc(C(F)F)c(C(=O)NCCSC)c1Cl [Example 2-157] | – | – | 90 | – | 90 | – | – | – | –
10 | Cc1nnc(NC(=O)c2ccc(C(F)F)c(C(=O)NCC3CC3)c2Br)o1 [Example 6-167] | 90 | 80 | 100 | 90 | 100 | 100 | 100 | 100 | Pre-emergence action against SETVI in % ([12]; dosage 20 g/ha): 80%; Pre-emergence action against SETVI in % ([12]; dosage 80 g/ha): 80%; Pre-emergence action against ABUTH (herbicidal activity in percent) [7]: 90%; Pre-emergence action against VIOTR in % ([10]; dosage 20 g/ha): 90%; Pre-emergence action against VIOTR in % ([10]; dosage 80 g/ha): 100%
11 | CSc1c(C(=O)Nc2nnc(C)o2)ccc(C(F)(F)F)c1C(=O)NC1CC1 [Example 6-60] | – | 90 | 100 | 90 | 100 | 90 | – | 80 | Post-emergence action against ABUTH in % [11]: 90%
12 | CCn1nnnc1NC(=O)c1ccc(C(F)F)c(C(=O)NCCSC)c1C [Example 2-347] | – | – | – | – | – | 100 | – | – | –
13 | CCn1nnnc1NC(=O)c1ccc(C(F)F)c(C(=O)NCc2cccs2)c1Cl [Example 2-162] | – | – | 100 | 90 | 100 | – | 90 | 80 | Pre-emergence action against VIOTR in % ([10]; dosage 80 g/ha): 80%
14 | N#CCNC(=O)c1c(C(F)(F)F)ccc(C(=O)Nc2nnco2)c1Cl [Example 5-254] | – | – | 100 | – | 80 | 100 | – | – | Pre-emergence action against VIOTR in % ([10]; dosage 80 g/ha): 90%
15 | COc1c(C(=O)Nc2nnc(C)o2)ccc(C(F)F)c1C(=O)NC1CC1 [Example 6-51] | 100 | 80 | 100 | – | – | 100 | 80 | – | –
16 | Cn1nnnc1NC(=O)c1ccc(C(F)(F)F)c(C(=O)Nc2ccccc2)c1Cl [Example 1-143] | – | – | – | – | – | – | – | – | pest or weed control at 80 g/ha ([1]; Digitaria sanguinalis, 504 h, dosage 80 g/ha): 80%; pest or weed control at 20 g/ha ([4]; Tripleurospermum inodorum, 504 h, dosage 20 g/ha): 80%; pest or weed control at 80 g/ha ([4]; Tripleurospermum inodorum, 504 h, dosage 80 g/ha): 100%; pest or weed control at 80 g/ha ([7]; Abutilon theophrasti, 504 h, 80 g/ha, scored visually after 3 weeks vs untreated controls (100% = plants have died, 0% = like control plants)): 100%; pest or weed control at 80 g/ha ([3]; Amaranthus retroflexus, 504 h, 80 g/ha, scored visually after 3 weeks vs untreated controls, 100% = plants have died, 0% = like control plants): 100%
17 | CSCCNC(=O)c1c(C(F)F)ccc(C(=O)Nc2nnnn2C)c1Cl [Example 1-157] | – | – | 100 | – | – | – | – | – | –
18 | CSc1c(C(=O)Nc2nnc(C)o2)ccc(C(F)F)c1C(=O)NC1CC1 [Example 6-76] | – | 80 | 100 | 90 | 100 | – | – | – | Pre-emergence action against SETVI in % ([12]; dosage 80 g/ha): 80%; Post-emergence action against SETVI in % [14]: 80%
19 | CCNC(=O)c1c(C(F)F)ccc(C(=O)Nc2nnc(C)o2)c1OC [Example 6-50] | 100 | 80 | 100 | 80 | – | 90 | 100 | – | Post-emergence action against ABUTH in % [11]: 80%; Post-emergence action against VIOTR in % ([6]; 20 g/ha): 80%
20 | Cc1nnc(NC(=O)c2ccc(C(F)F)c(C(=O)Nc3ccccc3)c2Cl)o1 [Example 6-266] | – | – | 100 | 80 | 100 | 80 | 90 | – | Post-emergence action against PHBPU in % [8]: 80%
21 | Cc1nnc(NC(=O)c2ccc(Br)c(C(=O)NCC3CC3)c2Cl)o1 [Example 6-143] | 100 | – | 100 | – | – | 100 | 100 | – | Pre-emergence action against ABUTH (herbicidal activity in percent) [7]: 100%
22 | Cc1nnc(NC(=O)c2ccc(Br)c(C(=O)NCC(F)(F)F)c2Cl)o1 [Example 6-144] | 100 | 80 | 100 | 80 | – | 90 | 90 | 100 | Pre-emergence action against SETVI in % ([12]; dosage 80 g/ha): 90%; Pre-emergence action against DIGSA in % ([1]; dosage 20 g/ha): 90%
